In one test the test system is C. albicans ATCC 90028. Put plainly: Anti-Fungal (Candida) Activity Assay, broth microtiter MIC. The settings on record: read-out: MIC C. albicans ATCC 90028. Format: cell-based. In a few lines: (§1)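 Following CLSI M27-A3 broth microdilution, direct colony suspensions in RPMI 1640+MOPS were challenged with compounds. MICs were read visually against the growth control after 48 h.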

In test [1] the test system is C. parapsilosis ATCC 22019. The description is as above. The settings on record: Lodderomyces parapsilosis, read-out: MIC C. parapsilosis ATCC 22019. Format: cell-based. In outline: as §1
The subject of another test is C. krusei ATCC 6258. The test is described as above. Format: cell-based. As to conditions: Pichia kudriavzevii, read-out: MIC C. krusei ATCC 6258. In outline:
as §1

A further test deals with human (hACC2) ACC2 (Homo sapiens, UniProt O00763). The test can be described thus: In vitro Acetyl-CoA Carboxylase (ACC) inhibition assay (ADP-Glo), hACC2. Format: biochemical. The method, then:
The detailed procedure is as follows. […] 10 μL ADP glo reagent was added. […] 20 μL kinase detection reagent was added.
“NA” stands for “not assayed.”
(In general: ADP-Glo first removes unused ATP, then detects ADP through luciferase.)

The target in the next test is fungal (fACC2) ACC2 (UniProt Q00955). The settings on record: read-out: fACC2 IC50; fungal ACC2, ADP-Glo.
Sequence of fungal (fACC2) ACC2 (Q00955 whole entry): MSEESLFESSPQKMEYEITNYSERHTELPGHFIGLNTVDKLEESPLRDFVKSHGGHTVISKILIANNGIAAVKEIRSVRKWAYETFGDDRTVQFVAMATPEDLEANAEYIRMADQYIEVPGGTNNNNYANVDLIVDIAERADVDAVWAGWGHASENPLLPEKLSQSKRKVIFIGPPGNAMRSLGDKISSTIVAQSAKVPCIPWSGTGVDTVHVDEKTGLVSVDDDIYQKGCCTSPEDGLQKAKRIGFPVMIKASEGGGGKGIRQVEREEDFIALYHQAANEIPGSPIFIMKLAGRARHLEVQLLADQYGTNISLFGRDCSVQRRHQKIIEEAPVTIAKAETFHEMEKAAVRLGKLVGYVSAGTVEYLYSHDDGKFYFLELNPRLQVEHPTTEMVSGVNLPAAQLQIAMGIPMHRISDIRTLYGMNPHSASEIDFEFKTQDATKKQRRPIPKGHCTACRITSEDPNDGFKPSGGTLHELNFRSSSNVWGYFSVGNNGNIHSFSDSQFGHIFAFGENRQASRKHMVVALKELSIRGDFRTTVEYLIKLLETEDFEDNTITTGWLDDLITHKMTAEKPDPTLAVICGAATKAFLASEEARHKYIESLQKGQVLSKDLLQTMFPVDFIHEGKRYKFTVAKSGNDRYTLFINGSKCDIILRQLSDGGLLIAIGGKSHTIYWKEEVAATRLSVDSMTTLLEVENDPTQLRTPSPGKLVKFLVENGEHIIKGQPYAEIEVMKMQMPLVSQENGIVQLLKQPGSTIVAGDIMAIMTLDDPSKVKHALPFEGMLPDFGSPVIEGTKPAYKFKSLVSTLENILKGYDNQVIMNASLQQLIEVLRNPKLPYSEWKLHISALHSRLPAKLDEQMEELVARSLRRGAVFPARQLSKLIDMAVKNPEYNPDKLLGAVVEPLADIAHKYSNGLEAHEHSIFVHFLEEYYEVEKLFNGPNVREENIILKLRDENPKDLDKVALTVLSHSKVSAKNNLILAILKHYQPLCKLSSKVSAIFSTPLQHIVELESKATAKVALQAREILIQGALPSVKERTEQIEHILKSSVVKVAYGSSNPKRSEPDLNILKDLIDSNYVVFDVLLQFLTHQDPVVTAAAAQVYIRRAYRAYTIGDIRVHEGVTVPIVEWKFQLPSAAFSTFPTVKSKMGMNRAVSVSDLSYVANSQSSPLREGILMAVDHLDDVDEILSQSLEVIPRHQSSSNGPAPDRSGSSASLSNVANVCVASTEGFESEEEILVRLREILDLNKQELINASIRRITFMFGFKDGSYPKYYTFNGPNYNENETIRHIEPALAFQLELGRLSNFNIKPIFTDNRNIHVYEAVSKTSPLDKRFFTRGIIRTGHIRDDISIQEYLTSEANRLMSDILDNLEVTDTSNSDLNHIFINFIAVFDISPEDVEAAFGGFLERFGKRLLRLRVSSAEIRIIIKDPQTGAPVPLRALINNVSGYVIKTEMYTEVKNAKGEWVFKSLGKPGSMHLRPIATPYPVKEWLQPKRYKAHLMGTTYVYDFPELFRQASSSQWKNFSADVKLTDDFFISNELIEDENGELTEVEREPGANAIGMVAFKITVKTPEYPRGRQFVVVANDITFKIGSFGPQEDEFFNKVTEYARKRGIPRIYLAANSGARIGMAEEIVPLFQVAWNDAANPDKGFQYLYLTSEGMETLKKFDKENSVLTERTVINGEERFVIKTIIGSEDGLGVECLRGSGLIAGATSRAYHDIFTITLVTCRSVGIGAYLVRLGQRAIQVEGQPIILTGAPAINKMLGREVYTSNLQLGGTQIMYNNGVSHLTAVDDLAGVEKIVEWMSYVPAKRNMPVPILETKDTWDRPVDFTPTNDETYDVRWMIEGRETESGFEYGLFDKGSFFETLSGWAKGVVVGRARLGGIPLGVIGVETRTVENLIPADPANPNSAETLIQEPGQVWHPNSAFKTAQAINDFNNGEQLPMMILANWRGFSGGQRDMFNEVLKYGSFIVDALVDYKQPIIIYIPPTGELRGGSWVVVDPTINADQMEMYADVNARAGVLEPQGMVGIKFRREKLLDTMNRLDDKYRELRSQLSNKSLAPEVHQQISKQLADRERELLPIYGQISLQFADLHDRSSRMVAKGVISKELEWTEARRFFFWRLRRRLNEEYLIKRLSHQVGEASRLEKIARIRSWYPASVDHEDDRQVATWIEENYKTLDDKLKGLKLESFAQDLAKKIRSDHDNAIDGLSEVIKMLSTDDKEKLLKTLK
[2] abbreviates: ATCC90028, 3 replicates, MIC recorded at 48 h.
[3] abbreviates: ATCC22019, 3 replicates, MIC recorded at 48 h.
Where [4] appears, read: ATCC6258, 3 replicates, MIC recorded at 48 h.

Structures are written as SMILES. Converted amounts (≈) assume the structure as drawn. Like-named read-outs stand apart in the source and are kept apart here. Some results are limits rather than exact numbers.

One may read the MIC as the least concentration at which growth counts as inhibited. As a reminder, the IC50 is the concentration that gives 50% inhibition.

Sequence of human (hACC2) ACC2 (O00763 whole entry): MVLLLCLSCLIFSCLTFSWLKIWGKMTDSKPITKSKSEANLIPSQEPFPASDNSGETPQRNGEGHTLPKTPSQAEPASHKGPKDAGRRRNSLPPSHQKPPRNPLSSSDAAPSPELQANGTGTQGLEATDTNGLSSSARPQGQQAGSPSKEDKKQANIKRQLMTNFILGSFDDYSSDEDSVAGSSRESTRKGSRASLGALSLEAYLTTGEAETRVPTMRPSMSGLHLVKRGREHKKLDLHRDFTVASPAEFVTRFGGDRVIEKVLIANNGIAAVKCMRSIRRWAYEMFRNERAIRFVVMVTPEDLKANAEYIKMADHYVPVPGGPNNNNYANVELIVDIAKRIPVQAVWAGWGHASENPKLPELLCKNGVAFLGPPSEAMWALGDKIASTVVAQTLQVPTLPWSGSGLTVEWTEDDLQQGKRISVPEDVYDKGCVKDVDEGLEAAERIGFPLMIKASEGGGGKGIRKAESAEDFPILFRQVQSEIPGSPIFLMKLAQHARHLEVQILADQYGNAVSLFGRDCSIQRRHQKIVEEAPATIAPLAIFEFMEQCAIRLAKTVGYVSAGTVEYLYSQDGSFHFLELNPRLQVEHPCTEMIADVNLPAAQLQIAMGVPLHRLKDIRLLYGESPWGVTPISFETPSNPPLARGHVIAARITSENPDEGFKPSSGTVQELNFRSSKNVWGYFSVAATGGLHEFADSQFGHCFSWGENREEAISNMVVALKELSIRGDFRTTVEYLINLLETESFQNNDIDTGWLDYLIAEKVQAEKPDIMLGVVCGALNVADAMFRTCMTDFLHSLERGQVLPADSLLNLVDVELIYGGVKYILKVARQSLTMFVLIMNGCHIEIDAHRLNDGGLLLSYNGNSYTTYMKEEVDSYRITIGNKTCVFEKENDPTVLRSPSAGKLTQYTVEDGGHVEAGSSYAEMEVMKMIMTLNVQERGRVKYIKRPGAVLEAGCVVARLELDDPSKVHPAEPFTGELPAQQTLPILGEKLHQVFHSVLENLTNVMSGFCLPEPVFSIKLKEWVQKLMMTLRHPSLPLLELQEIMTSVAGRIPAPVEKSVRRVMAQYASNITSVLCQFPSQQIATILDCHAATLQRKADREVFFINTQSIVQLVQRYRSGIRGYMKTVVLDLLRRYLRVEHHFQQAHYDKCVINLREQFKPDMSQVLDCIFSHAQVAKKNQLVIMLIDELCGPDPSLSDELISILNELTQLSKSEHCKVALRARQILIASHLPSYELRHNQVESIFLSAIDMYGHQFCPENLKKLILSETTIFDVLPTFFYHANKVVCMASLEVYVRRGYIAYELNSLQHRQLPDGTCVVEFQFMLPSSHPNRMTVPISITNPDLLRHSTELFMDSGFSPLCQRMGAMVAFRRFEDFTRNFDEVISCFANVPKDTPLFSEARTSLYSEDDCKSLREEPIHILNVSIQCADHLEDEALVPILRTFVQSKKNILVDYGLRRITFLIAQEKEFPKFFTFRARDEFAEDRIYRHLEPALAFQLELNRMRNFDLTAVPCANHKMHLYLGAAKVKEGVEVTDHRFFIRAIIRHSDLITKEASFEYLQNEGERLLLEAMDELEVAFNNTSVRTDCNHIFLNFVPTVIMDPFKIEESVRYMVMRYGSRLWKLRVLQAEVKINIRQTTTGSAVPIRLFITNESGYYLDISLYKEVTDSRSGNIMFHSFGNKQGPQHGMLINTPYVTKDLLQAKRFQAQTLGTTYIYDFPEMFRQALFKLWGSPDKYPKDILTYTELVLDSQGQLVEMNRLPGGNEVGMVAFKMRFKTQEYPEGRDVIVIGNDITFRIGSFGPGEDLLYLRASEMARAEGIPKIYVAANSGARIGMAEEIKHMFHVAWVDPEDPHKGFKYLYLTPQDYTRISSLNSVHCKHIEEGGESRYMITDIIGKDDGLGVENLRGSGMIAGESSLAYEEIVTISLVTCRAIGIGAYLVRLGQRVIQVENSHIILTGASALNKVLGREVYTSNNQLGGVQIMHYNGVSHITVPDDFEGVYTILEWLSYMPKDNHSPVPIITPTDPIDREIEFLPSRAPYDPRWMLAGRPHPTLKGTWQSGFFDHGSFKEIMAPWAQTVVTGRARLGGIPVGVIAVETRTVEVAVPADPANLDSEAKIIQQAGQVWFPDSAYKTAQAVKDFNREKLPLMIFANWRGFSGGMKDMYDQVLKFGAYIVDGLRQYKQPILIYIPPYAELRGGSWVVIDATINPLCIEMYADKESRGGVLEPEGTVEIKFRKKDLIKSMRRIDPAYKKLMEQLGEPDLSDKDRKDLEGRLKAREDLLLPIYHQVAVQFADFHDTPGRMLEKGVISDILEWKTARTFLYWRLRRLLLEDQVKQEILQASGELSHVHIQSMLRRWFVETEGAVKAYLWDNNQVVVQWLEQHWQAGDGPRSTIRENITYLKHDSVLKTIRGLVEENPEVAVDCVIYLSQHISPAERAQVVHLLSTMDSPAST

As for `COc1ccc(F)cc1[C@H](Cn1c(=O)n(C(C)C(=O)NC(C)C)c(=O)c2c(C)c(-n3cccn3)sc21)OCC(C)(C)O` (stereo partly drawn) [Compound I-67], the MIC (with C. albicans ATCC 90028 (setting [2]); in test [1] (setting [3]); with C. krusei ATCC 6258 (setting [4])) was > 4.1 µg/mL in each case. The IC50 on human (hACC2) ACC2 is 10 to 40 nM; on fungal (fACC2) ACC2, 0.6 to 3 nM.
Consider `COc1ccccc1[C@H](Cn1c(=O)n(C(C)(C)C(=O)NC(C)C)c(=O)c2c(C)c(-n3cccn3)sc21)OCCC#N` [Compound I-80, (R)-2-(1-(2-(2-cyanoethoxy)-2-(2-methoxyphenyl)ethyl)-5-methyl-2,4-dioxo-6-(1H-pyrazol-1-yl)-1,4-dihydrothieno[2,3-d]pyrimidin-3(2H)-yl)-N-isopropyl-2-methylpropanamide], for which the MIC is > 4.1 µg/mL in the test on C. albicans ATCC 90028 (ATCC90028, 48 h); > 4.1 µg/mL in test [1] (ATCC22019, 48 h); > 4.1 µg/mL in the test on C. krusei ATCC 6258 (ATCC6258, 48 h). The IC50 on human (hACC2) ACC2 is 10 to 40 nM; on fungal (fACC2) ACC2, 3 to 10 nM.
In the case of `COc1ccccc1[C@H](Cn1c(=O)n(C(C)(C)C(=O)O)c(=O)c2c(C)c(-n3cccn3)sc21)O[C@H]1CC[C@@H](O)CC1` [Compound I-72], the MIC (with C. albicans ATCC 90028 (setting [2]); in test [1] (setting [3]); with C. krusei ATCC 6258 (setting [4])) was > 4.1 µg/mL throughout. Further, the figures for the IC50 against human (hACC2) ACC2 and on fungal (fACC2) ACC2 were 3 to 10 nM and 0.6 to 3 nM, respectively.
As to `Cc1c(-n2cccn2)sc2c1c(=O)n(C(C)(C)C(=O)NC(C)C)c(=O)n2C[C@H](OC1CCOCC1)c1cc(F)ccc1OCC1COC1` [Compound I-50], the MIC (in the test on C. albicans ATCC 90028 (setting [2]); in test [1] (setting [3]); in the test with C. krusei ATCC 6258 (setting [4])) was > 4.1 µg/mL in each case. Also, the IC50 was in the range of 3 to 10 nM against human (hACC2) ACC2 and 0.6 to 3 nM on fungal (fACC2) ACC2.
As to `COCCOc1ccc(F)cc1[C@H](Cn1c(=O)n(C(C)(C)C(=O)O)c(=O)c2c(C)c(-n3cccn3)sc21)OC(C)C` [Compound I-64], the MIC (in the test on C. albicans ATCC 90028 (setting [2]); in test [1] (setting [3]); in the test with C. krusei ATCC 6258 (setting [4])) was > 4.1 µg/mL in each case. Besides, the IC50 against human (hACC2) ACC2 lay in the range of 3 to 10 nM; at fungal (fACC2) ACC2, 0.6 to 3 nM.
Regarding `COCCO[C@@H](Cn1c(=O)n(C(C)C(=O)NC(C)C)c(=O)c2c(C)c(-n3cccn3)sc21)c1cc(F)ccc1OC` (stereo partly drawn) [Compound I-55], the MIC (with C. albicans ATCC 90028 (setting [2]); in test [1] (setting [3]); with C. krusei ATCC 6258 (setting [4])) was 2.1 to 4 µg/mL (≈ 3.57 to 6.81 µM) each time. The IC50 was 3 to 10 nM against human (hACC2) ACC2 and 0.6 to 3 nM on fungal (fACC2) ACC2.
On to `COc1ccccc1[C@H](Cn1c(=O)n(C(C)(C)C(N)=O)c(=O)c2c(C)c(-n3cccn3)sc21)OCCC#N` [Compound I-83], for which the MIC (in the test with C. albicans ATCC 90028 (setting [2]); in test [1] (setting [3]); in the test on C. krusei ATCC 6258 (setting [4])) was > 4.1 µg/mL throughout. For the same compound, the IC50 at human (hACC2) ACC2 is 10 to 40 nM; on fungal (fACC2) ACC2 it was 3 to 10 nM.
Turning to `COc1ccccc1[C@H](Cn1c(=O)n(C(C)(C)C(=O)N2CCCC2)c(=O)c2c(C)c(-n3cccn3)sc21)OCCC#N` [Compound I-84, (R)-3-(I-(2-methoxyphenyl)-2-(5-methyl-3-(2-methyl-1-oxo-1-(pyrrolidin-1-yl)propan-2-yl)-2,4-dioxo-6-(1H-pyrazol-1-yl)-3,4-dihydrothieno[2,3-d]pyrimidin-1(2H)-yl)ethoxy)propanenitrile], the minimum inhibitory concentration (MIC) (with C. albicans ATCC 90028 (setting [2]); in test [1] (setting [3]); with C. krusei ATCC 6258 (setting [4])) was > 4.1 µg/mL throughout. For the same compound, the IC50 lay within 10 to 40 nM at human (hACC2) ACC2 and 0.6 to 3 nM at fungal (fACC2) ACC2.
Take `COc1ccc(F)cc1[C@H](Cn1c(=O)n(C(C)C(=O)N2CCCC2)c(=O)c2c(C)c(-n3cccn3)sc21)OCCO` (stereo partly drawn) [Compound I-58]: the minimum inhibitory concentration (MIC) in the test on C. albicans ATCC 90028 (setting [2]) was > 4.1 µg/mL; in test [1] (setting [3]), > 4.1 µg/mL; in the test with C. krusei ATCC 6258 (setting [4]), 2.1 to 4 µg/mL (≈ 3.59 to 6.83 µM). The figures for the IC50 at human (hACC2) ACC2 and on fungal (fACC2) ACC2 were 3 to 10 nM and 0.6 to 3 nM, respectively.
As for `COCCCO[C@@H](Cn1c(=O)n(C(C)C(=O)N2CCCC2)c(=O)c2c(C)c(-n3cccn3)sc21)c1cc(F)ccc1OC` (stereo partly drawn) [Compound I-70], the MIC (in the test on C. albicans ATCC 90028 (setting [2]); in test [1] (setting [3]); in the test on C. krusei ATCC 6258 (setting [4])) was > 4.1 µg/mL in each case. The IC50 against human (hACC2) ACC2 fell in the range of 10 to 40 nM; at fungal (fACC2) ACC2, 0.6 to 3 nM.
Turning to `COCCOc1ccc(F)cc1[C@H](Cn1c(=O)n(C(C)(C)C(=O)NC(C)C)c(=O)c2c(C)c(-n3cccn3)sc21)OC1CCOCC1` [Compound I-49], the MIC is > 4.1 µg/mL in the test with C. albicans ATCC 90028 (setting [2]), > 4.1 µg/mL in test [1] (setting [3]) and 1.1 to 2 µg/mL (≈ 1.64 to 2.98 µM) in the test on C. krusei ATCC 6258 (setting [4]). Further, the IC50 against human (hACC2) ACC2 lay in the range of 3 to 10 nM; at fungal (fACC2) ACC2, 0.6 to 3 nM.
Regarding `COc1ccc(F)cc1[C@H](Cn1c(=O)n(C(C)C(=O)N2CCCC2)c(=O)c2c(C)c(-n3cccn3)sc21)OCC(C)(C)O` (stereo partly drawn) [Compound I-66], the MIC (in the test with C. albicans ATCC 90028 (setting [2]); in test [1] (setting [3]); in the test with C. krusei ATCC 6258 (setting [4])) was > 4.1 µg/mL each time. The IC50 against human (hACC2) ACC2 fell in the range of 10 to 40 nM; on fungal (fACC2) ACC2, 0.6 to 3 nM.

The values are drawn from patent US10941158B2, “Pyrazole ACC inhibitors and uses thereof” (Gilead Apollo, LLC, priority 2015, dated 2021).
